Experimental data reported in patent US11286239B2, “Angiotensin II receptor 2 antagonist salt form and crystalline form, and preparation method therefor” (SHANDONG DANHONG PHARMACEUTICAL CO., LTD., priority 2018, dated 2022).

Assays:
[1] = Hygroscopicity study by dynamic vapor sorption (DVS); type: physicochemical; settings: 25° C. and 80% RH
Method: Test conditions: a sample (10-15 mg) is placed in DVS sample tray for testing.
Balance: dm/dt=0.01%/min (shortest: 10 min, longest: 180 min)
Drying: drying for 120 min at 0% RH
RH (%) test gradient: 10%
RH (%) test gradient range: 0%-90%-0%
The hygroscopicity property is evaluated and classified as follows: […]

Solid stability test = type: physicochemical
Method: […] The samples placed at the conditions of high temperature (60° C.) and high humidity (92.5% humidity, room temperature) were taken to test XRPD and purity on the 5th day and 10 days. Samples placed at high temperature and high humidity (40° C./75% humidity, 60° C./75% humidity) were taken to test XRPD and purity on the 10th day, 1 month, 2 months, and 3 months. The samples placed under light irradiation conditions were taken for testing when a total illuminance reached 1.2×10^6 Lux·hr. The test results are compared with the beginning test results of 0 day.

[2] = 40° C., relative humidity 75%, open, 1M
[3] = 40° C., relative humidity 75%, open, 2M
[4] = 40° C., relative humidity 75%, open, 3M
[5] = 40° C., relative humidity 75%, open, 10 days
[6] = 60° C., relative humidity 75%, open, 1M
[7] = 60° C., relative humidity 75%, open, 2M
[8] = 60° C., relative humidity 75%, open, 3M
[9] = 60° C., relative humidity 75%, open, 10 days
[10] = High humidity (room temperature/relative humidity 92.5%, open), 5 days
[11] = High humidity (room temperature/relative humidity 92.5%, open), 10 days
[12] = High temperature (60° C., open), 5 days
[13] = High temperature (60° C., open), 10 days
[14] = Light irradiation (total illuminance of 1.2 × 10^6 Lux·hr/near ultraviolet 200 w·hr/m^2, open)

- Classification of hygroscopicity [1]: almost no hygroscopicity
- ΔW, weight gain caused by hygroscopicity [1]: 0.05327%
- Crystalline form (XRPD) (Solid stability test; 0 day): Crystalline form “B”
- Purity (Solid stability test; 0 day): 99.89%
- Crystalline form (XRPD) (Solid stability test; [2]): Crystalline form “B”
- Purity (Solid stability test; [2]): 99.92%
- Crystalline form (XRPD) (Solid stability test; [3]): Crystalline form “B”
- Purity (Solid stability test; [3]): 99.87%
- Crystalline form (XRPD) (Solid stability test; [4]): Crystalline form “B”
- Purity (Solid stability test; [4]): 99.87%
- Crystalline form (XRPD) (Solid stability test; [5]): Crystalline form “B”
- Purity (Solid stability test; [5]): 99.93%
- Crystalline form (XRPD) (Solid stability test; [6]): Crystalline form “B”
- Purity (Solid stability test; [6]): 99.90%
- Crystalline form (XRPD) (Solid stability test; [7]): Crystalline form “B”
- Purity (Solid stability test; [7]): 99.78%
- Crystalline form (XRPD) (Solid stability test; [8]): Crystalline form “B”
- Purity (Solid stability test; [8]): 99.80%
- Crystalline form (XRPD) (Solid stability test; [9]): Crystalline form “B”
- Purity (Solid stability test; [9]): 99.92%
- Crystalline form (XRPD) (Solid stability test; [10]): Crystalline form “B”
- Purity (Solid stability test; [10]): 99.93%
- Crystalline form (XRPD) (Solid stability test; [11]): Crystalline form “B”
- Purity (Solid stability test; [11]): 99.92%
- Crystalline form (XRPD) (Solid stability test; [12]): Crystalline form “B”
- Purity (Solid stability test; [12]): 99.93%
- Crystalline form (XRPD) (Solid stability test; [13]): Crystalline form “B”
- Purity (Solid stability test; [13]): 99.93%
- Crystalline form (XRPD) (Solid stability test; [14]): Crystalline form “B”
- Purity (Solid stability test; [14]): 99.96%
Structure (SMILES): COc1ccc2c(c1OCc1ccccc1)C[C@@H](C(=O)O)N(C(=O)[C@@H](OC1CCCC1)c1ccccc1)C2 [crystalline form “B”]
- Solid stability conclusion (Solid stability test; high temperature, high humidity, strong light and accelerated conditions): good crystal stability and good chemical stability
